From ChEMBL document CHEMBL3885861, “Open TG-GATES”

Species: Rattus norvegicus
Test: Open TG-GATES - Regimen: Daily Repeat
Type: toxicity, organism-based, Sprague-Dawley
Set-up: regimen Daily Repeat, gender Male, age 6 weeks
Settings: in vivo, po, 0 mg/kg, route gavage, dose level Control; for APTT / Bas / Eos / Fbg / Hb / Ht / Lym / MCH / MCHC / MCV / Mono / Neu / PT / Plat / RBC / Ret / WBC: tissue Blood; for KIDNEY_L / KIDNEY_R / KIDNEY_TOTAL: tissue Kidney; for LIVER: tissue Liver; for A/G / ALP / ALT / AST / BUN / CRE / Ca / Cl / DBIL / GLC / IP / K / LDH / Na / PL / RALB / TBIL / TC / TG / TP / gamma-GTP: tissue Plasma

CC[C@H]1[C@@H]2C[C@H]3[C@@H]4N(C)c5ccccc5[C@]45C[C@@H]([C@@H]2[C@H]5O)N3[C@@H]1O [AJMALINE]
TERMINAL_BW (72 h, time 3 day): 211 g
APTT (72 h, time 3 day): 16.4 s
Bas (72 h, time 3 day): 0%
Eos (72 h, time 3 day): 1%
Fbg (72 h, time 3 day): 218.4 mg/dL
Hb (72 h, time 3 day): 13 g/dL
Ht (72 h, time 3 day): 40.1%
Lym (72 h, time 3 day): 75.8%
MCH (72 h, time 3 day): 21.1 pg
MCHC (72 h, time 3 day): 32.4%
MCV (72 h, time 3 day): 65 fL
Mono (72 h, time 3 day): 10.4%
Neu (72 h, time 3 day): 13%
PT (72 h, time 3 day): 11.6 s
Plat (72 h, time 3 day): 115.1 x10_4/uL
RBC (72 h, time 3 day): 617.4 x10_4/ul
Ret (72 h, time 3 day): 8%
WBC (72 h, time 3 day): 104.3 x10_2/uL
KIDNEY_L (72 h, time 3 day): 0.9 g
KIDNEY_R (72 h, time 3 day): 1 g
KIDNEY_TOTAL (72 h, time 3 day): 1.9 g
LIVER (72 h, time 3 day): 10.3 g
A/G (72 h, time 3 day): 2.2
ALP (72 h, time 3 day): 1003.6 IU/L
ALT (72 h, time 3 day): 37 IU/L
AST (72 h, time 3 day): 63.8 IU/L
BUN (72 h, time 3 day): 19.4 mg/dL
CRE (72 h, time 3 day): 0.5 mg/dL
Ca (72 h, time 3 day): 11.1 mg/dL
Cl (72 h, time 3 day): 102.8 meq/L
DBIL (72 h, time 3 day): 0.008 mg/dL
GLC (72 h, time 3 day): 199.8 mg/dL
IP (72 h, time 3 day): 7.4 mg/dL
K (72 h, time 3 day): 4.5 meq/L
LDH (72 h, time 3 day): 87.6 IU/L
Na (72 h, time 3 day): 140 meq/L
PL (72 h, time 3 day): 152.6 mg/dL
RALB (72 h, time 3 day): 3.9 g/dL
TBIL (72 h, time 3 day): 0.3 mg/dL
TC (72 h, time 3 day): 79.4 mg/dL
TG (72 h, time 3 day): 101.4 mg/dL
TP (72 h, time 3 day): 5.8 g/dL
gamma-GTP (72 h, time 3 day): 1.8 IU/L
TERMINAL_BW ([…], time 7 day): 249.2 g
TERMINAL_BW ([…], time 14 day): 302.2 g
TERMINAL_BW ([…], time 28 day): 382 g
APTT ([…], time 7 day): 16.1 s
Bas ([…], time 7 day): 0%
Eos ([…], time 7 day): 1%
Fbg ([…], time 7 day): 220.4 mg/dL
Hb ([…], time 7 day): 13 g/dL
Ht ([…], time 7 day): 39.8%
Lym ([…], time 7 day): 82.2%
MCH ([…], time 7 day): 20.6 pg
MCHC ([…], time 7 day): 32.6%
MCV ([…], time 7 day): 63.3 fL
Mono ([…], time 7 day): 5%
Neu ([…], time 7 day): 12.2%
PT ([…], time 7 day): 11.2 s
Plat ([…], time 7 day): 125.7 x10_4/uL
RBC ([…], time 7 day): 629.6 x10_4/ul
Ret ([…], time 7 day): 7%
WBC ([…], time 7 day): 107.8 x10_2/uL
APTT ([…], time 14 day): 17.8 s
Bas ([…], time 14 day): 0%
Eos ([…], time 14 day): 0.8%
Fbg ([…], time 14 day): 211.6 mg/dL
Hb ([…], time 14 day): 13.6 g/dL
Ht ([…], time 14 day): 41.6%
Lym ([…], time 14 day): 84.6%
MCH ([…], time 14 day): 20.6 pg
MCHC ([…], time 14 day): 32.9%
MCV ([…], time 14 day): 62.5 fL
Mono ([…], time 14 day): 4%
Neu ([…], time 14 day): 11%
PT ([…], time 14 day): 11.4 s
Plat ([…], time 14 day): 121.9 x10_4/uL
RBC ([…], time 14 day): 664.2 x10_4/ul
Ret ([…], time 14 day): 3.8%
WBC ([…], time 14 day): 121.7 x10_2/uL
APTT ([…], time 28 day): 17.6 s
Bas ([…], time 28 day): 0%
Eos ([…], time 28 day): 1.2%
Fbg ([…], time 28 day): 226.2 mg/dL
Hb ([…], time 28 day): 15.2 g/dL
Ht ([…], time 28 day): 45.3%
Lym ([…], time 28 day): 83.8%
MCH ([…], time 28 day): 19.1 pg
MCHC ([…], time 28 day): 33.5%
MCV ([…], time 28 day): 57 fL
Mono ([…], time 28 day): 5.6%
Neu ([…], time 28 day): 9.6%
PT ([…], time 28 day): 11.4 s
Plat ([…], time 28 day): 125.9 x10_4/uL
RBC ([…], time 28 day): 794.6 x10_4/ul
Ret ([…], time 28 day): 2%
WBC ([…], time 28 day): 105.2 x10_2/uL
KIDNEY_L ([…], time 7 day): 1 g
KIDNEY_R ([…], time 7 day): 1.1 g
KIDNEY_TOTAL ([…], time 7 day): 2.1 g
KIDNEY_L ([…], time 14 day): 1.2 g
KIDNEY_R ([…], time 14 day): 1.3 g
KIDNEY_TOTAL ([…], time 14 day): 2.5 g
KIDNEY_L ([…], time 28 day): 1.4 g
KIDNEY_R ([…], time 28 day): 1.4 g
KIDNEY_TOTAL ([…], time 28 day): 2.9 g
LIVER ([…], time 7 day): 12.3 g
LIVER ([…], time 14 day): 13.9 g
LIVER ([…], time 28 day): 16.5 g
A/G ([…], time 7 day): 1.9
ALP ([…], time 7 day): 1031.8 IU/L
ALT ([…], time 7 day): 37.4 IU/L
AST ([…], time 7 day): 67 IU/L
BUN ([…], time 7 day): 18.4 mg/dL
CRE ([…], time 7 day): 0.5 mg/dL
Ca ([…], time 7 day): 11.1 mg/dL
Cl ([…], time 7 day): 104.2 meq/L
DBIL ([…], time 7 day): 0.004 mg/dL
GLC ([…], time 7 day): 206.8 mg/dL
IP ([…], time 7 day): 7.9 mg/dL
K ([…], time 7 day): 4.4 meq/L
LDH ([…], time 7 day): 80.4 IU/L
Na ([…], time 7 day): 142.4 meq/L
PL ([…], time 7 day): 154 mg/dL
RALB ([…], time 7 day): 3.7 g/dL
TBIL ([…], time 7 day): 0.3 mg/dL
TC ([…], time 7 day): 79.8 mg/dL
TG ([…], time 7 day): 126.4 mg/dL
TP ([…], time 7 day): 5.7 g/dL
gamma-GTP ([…], time 7 day): 1.2 IU/L
A/G ([…], time 14 day): 1.9
ALP ([…], time 14 day): 756.6 IU/L
ALT ([…], time 14 day): 31 IU/L
AST ([…], time 14 day): 61.4 IU/L
BUN ([…], time 14 day): 20.6 mg/dL
CRE ([…], time 14 day): 0.5 mg/dL
Ca ([…], time 14 day): 10.9 mg/dL
Cl ([…], time 14 day): 104.2 meq/L
DBIL ([…], time 14 day): 0.008 mg/dL
GLC ([…], time 14 day): 206 mg/dL
IP ([…], time 14 day): 7.2 mg/dL
K ([…], time 14 day): 4.9 meq/L
LDH ([…], time 14 day): 90.6 IU/L
Na ([…], time 14 day): 141.6 meq/L
PL ([…], time 14 day): 148.4 mg/dL
RALB ([…], time 14 day): 3.8 g/dL
TBIL ([…], time 14 day): 0.3 mg/dL
TC ([…], time 14 day): 69.4 mg/dL
TG ([…], time 14 day): 126 mg/dL
TP ([…], time 14 day): 5.8 g/dL
gamma-GTP ([…], time 14 day): 1.4 IU/L
A/G ([…], time 28 day): 1.9
ALP ([…], time 28 day): 557 IU/L
ALT ([…], time 28 day): 29.8 IU/L
AST ([…], time 28 day): 57.6 IU/L
BUN ([…], time 28 day): 19.4 mg/dL
CRE ([…], time 28 day): 0.6 mg/dL
Ca ([…], time 28 day): 10.3 mg/dL
Cl ([…], time 28 day): 105.2 meq/L
DBIL ([…], time 28 day): 0.016 mg/dL
GLC ([…], time 28 day): 195 mg/dL
IP ([…], time 28 day): 6.3 mg/dL
K ([…], time 28 day): 4.7 meq/L
LDH ([…], time 28 day): 78.2 IU/L
Na ([…], time 28 day): 142.6 meq/L
PL ([…], time 28 day): 139 mg/dL
RALB ([…], time 28 day): 4 g/dL
TBIL ([…], time 28 day): 0.3 mg/dL
TC ([…], time 28 day): 62.6 mg/dL
TG ([…], time 28 day): 136.4 mg/dL
TP ([…], time 28 day): 6.2 g/dL
gamma-GTP ([…], time 28 day): 1.6 IU/L
